Experimental data from patent US9701660B2, “2,6-diaminopyridine compounds suitable for treating diseases associated with amyloid or amyloid-like proteins or for treating or preventing ocular diseases or conditions associated with a pathological abnormality/change in the tissue of the visual system” (AC Immune S.A., priority 2009, dated 2017).
“And” between values parts separate entries of the source, which are not always exact repeats. Equal values may be shown once.

Experiments:
[1] = biological target: T1, amyloid beta (Ab) 1-42 peptide (Homo sapiens, UniProt P05067); assay: Inhibition of amyloid beta (Ab) 1-42 peptide aggregation (thioflavin T spectrofluorescence assay); assay type: biochemical; conditions: for ThT assay at 330 mM % inhib.: small molecule to Ab1-42 10:1, 24 hrs at 37° C.; for biological activity (ThT assay) in words, compared to compound 1 / compounds according to the invention: comparison; for inhibition at 330 µM: mean of the two ThT assays at 330 µM, read-out: Mean % inhib.
T1 construct: amyloid beta (Ab) 1-42 peptide; purchased Bachem
T1 sequence (P05067 672-713 limits assumed): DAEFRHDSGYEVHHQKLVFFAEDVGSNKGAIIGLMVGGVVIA
Experimental: A number of small molecules were tested for their capacity to inhibit the aggregation of amyloid beta (Ab) 1-42 peptide using a thioflavin T spectrofluorescence assay.
Ab1-42 lyophilized powder (Bachem) was reconstituted in hexafluoroisopropanol (HFIP) to 1 mM. The peptide solution was sonicated for 15 min at room temperature, agitated overnight, and aliquots were placed in non-siliconized microcentrifuge tubes. The HFIP was then evaporated under a stream of argon. The resulting peptide film was dried under vacuum for 10 min, tightly sealed and stored at −80° C. until used.
Ab1-42 peptide film was dissolved in DMSO to reach 400 μM. Assay solution in PBS buffer was prepared in non-siliconized incubation tubes to reach the following concentrations: […] Ab1-42, 10 μM thioflavin T (ThT), and 12.8% DMSO. Therefore, the final molar ratio of small molecule to Ab1-42 was 10:1. A positive control without a small molecule was prepared to measure maximum RFU. A negative control without Ab1-42 was prepared for each small molecule. 3-Aminopyrazole trimer (Trimer) was tested in all assays to ascertain reproducibility between independent experiments. The solutions were incubated for 24 hrs at 37° C., and the spectrofluorescence (relative fluorescence units; RFU) read in six replicates in black 384-well assay plates (Perkin-Elmer) on a Perkin-Elmer FluoroCount spectrofluorometer. Inhibition of aggregation is expressed as mean % inhibition or ±1 standard deviation (SD) according to the following equation: % inhibition=(RFU of positive control−RFU of negative control)−(RFU of sample with Aβ-42−RFU of sample without Aβ1-42)×100 • (RFU of positive control−RFU of negative control)
Cut-off criteria for selection of functional molecules were defined at 50% inhibition capacity. Molecules showing an inhibition capacity over 70% were considered as very strong candidates.

[2] = Aqueous solubility in PBS (HPLC); assay type: physicochemical; conditions: for solubility at 24 h: PBS 1x, 24 hours at room temperature; for solubility in words, compared to compound 1: comparison
Experimental: Method for measuring the solubility:
• Plate shaker, Centrifuge (Eppendorf, 8 cm radius), HPLC (Dionex P580), Column: Agilent Zorbax Eclipse XDB-C18 rapid resolution (4.6×50 mm, […], Agilent), Uncoloured microtubes 1.5 mL (Eppendorf, 1.5 mL), Micropipettes […], Micropipettes […], Dulbecco's phosphate buffer, DMSO, ammonium formate, formic acid 98-100%, UP-H2O, acetonitrile HPLC grade, methanol GR analysis, PVDF membrane filter. 2. Method 2.1 Preparation of PBS 5× (Stored at 4° C.) and PBS1× for Analysis • PBS 5× • Dissolved the full content of PBS salt (D-5652-10L) in 2 L of UP-H2O. • PBS1× • Before analysis, dilute 5 fold the PBS 5× in order to prepare 30 mL of PBS1× and filter the solution using a syringe and any hydrophilic membrane e.g. PVDF membrane. 2.2 Preparation of HPLC Solvent (Stored at RT) • Solvent A: 13.3 mM ammonium formate/6.5 mM formic acid/UP-water
Dissolve 820±1 mg of ammonium formate and 245 μL of formic acid in 1000 mL of UP-H2O. • Solvent B: 6.0 mM ammonium formate/2.9 mM formic acid/90% acetonitrile/10% UP-water • Dissolve 378±1 mg of ammonium formate and 110 μL of formic acid in 900 mL acetonitrile and 100 mL of UP-H2O. 2.3 Preparation of the Stock Solution of the Compound • Dissolve compound in DMSO at a concentration of 25 mM (minimum […]). 2.4 Preparation of Standard Curve • Prepare 15 mL of methanol/H2O (6/4). • Prepare 5 standard calibrators: 250 μM, 200 μM, 50 μM, 12.5 μM and 3.13 μM in methanol/H2O (6/4). • Make preparations of each standard concentration in 1.5 microtubes.
• Transfer directly 250-300 μL from each microtube to an HPLC vial. • Run HPLC (from microtubes #6 to #1), using the following conditions:
C18 column, 0.7 mL/min, 20° C., UV detection at 254 nm, volume injection: 20 μL and one of the following gradients: […]
2.5. Preparation of the Sample for Aqueous Solubility • Prepare Samples of the Compound in Triplicates
• Shake it gently (350 rpm) for 24 hours at room temperature. • After the incubation time, centrifuge at 2500 g (5500 rpm) for 30 min. • Sample 200 μL of supernatant for HPLC analysis using the same conditions described in 2.4. 2.6. Data Treatment • Integrate area of each standard point peak at 254 nm. • Determine the standard curve for the compound by plotting the area vs. the theoretical concentration. Establish the standard curve equation based on a linear regression (with an intercept at 0, R^2≧0.90). y(area)=slope×x(concentration) • Calculate the average area of each triplicate prepared in aqueous phase.
The concentration of the compound in the supernatant is determined by the following formula: […]
The solubility of the compound is determined by the following formula: […]

[3] = system: retinal ganglion cells (RGCs); assay: Rat model of chronic ocular hypertension (OHT)/glaucoma; assay type: in vivo, Dark Agouti rats; conditions: for number of viable RGCs: 3 weeks after intra-vitreal injection in the OHT eye, in comparison to the control group, p<0.001; for reduction of intraocular pressure: at 3 weeks, Tonopen
Experimental: A rat model of chronic ocular hypertension (OHT)/glaucoma was created by injecting hypertonic saline into the episcleral veins of one eye of Dark Agouti rats. 18 rats received an intra-vitreal injection containing a volume of 5 μL of compound 1 (ACI-260) at a concentration of 74 mg/L in the OHT eye. 18 rats served as negative control and received 5 μl of saline and 18 rats served as positive control and received 6 μL Congo Red (1.46 mg/mL). 6 animals/timepoint were euthanized at 3, 8 and 16 weeks after treatment.
Intraocular pressure (IOP) was measured using a Tonopen once every 4 weeks post dosing and prior to sacrifice (within 3 days). 5 to 7 days prior to sacrifice, animals were injected intra-cerebrally with 5 μL of 4% FluoroGold to label the retinal ganglion cells (RGCs). In order to quantify viable RGCs, images were processed using a specific system of image analysis software and viable RGCs were expressed per square millimeter.

[4] = biological target: T1, amyloid beta (Ab) 1-42 peptide; assay: Inhibition of amyloid beta (Ab) 1-42 peptide aggregation (thioflavin T spectrofluorescence assay); assay type: biochemical; conditions: mean of 2 experiments; Ab1-42 aggregation, 24 hrs at 37° C.; read-out: IC50 ThT-assay
[5] = PBS 1x (Dulbecco's phosphate buffer), aqueous buffer, kinetic from dmso stock, table with IC50
[6] = PBS 1x (Dulbecco's phosphate buffer), aqueous buffer, kinetic from dmso stock, table with % inhib.

Structure (SMILES)	ThT assay at 330 mM % inhib. ([1]; experiment 1)	ThT assay at 330 mM % inhib. ([1]; experiment 2)	IC50 [4]	biological activity (ThT assay) in words, compared to compound 1 / compounds according to the invention [1]	solubility at 24 h [2, 6]	solubility in words, compared to compound 1 [2]	further results
CNc1cccc(NCCc2cccc(NCCc3ccccn3)n2)n1 [Compound 1]	88.8%	79.6%	25.5 µM				solubility at 24 h [2, 5]: 857 µM and 298 µg/mL; number of viable RGCs [3]: significantly increased; reduction of intraocular pressure [3]: not observed
CNc1cccc(NCCc2cccc(NCc3ccccn3)n2)n1 [Compound 2]			12.9 µM				
CNc1cccc(CCNc2cccc(NCCc3ccccn3)n2)n1 [Compound 3]			35.3 µM				solubility at 24 h [2, 5]: 206 µM and 71 µg/mL
CNc1cccc(NCCCc2cccc(NCCCc3ccccn3)n2)n1 [Compound 4]			16.5 µM				solubility at 24 h [2, 5]: 38 µg/mL; solubility at 24 h ([2]; table with IC50): 103 µM
CNc1cccc(CCNc2cccc(CCNc3ccccn3)n2)n1 [Compound 5]			140 µM	significantly decreased			
Nc1c(/N=N/c2ccc(-c3ccc(/N=N/c4cc(S(=O)(=O)O)c5ccccc5c4N)cc3)cc2)cc(S(=O)(=O)O)c2ccccc12 [Congo Red, reference compound]							number of viable RGCs [3]: significantly increased; reduction of intraocular pressure [3]: not observed

Further lines, with some results ahead:

ThT assay at 330 mM % inhib. ([1]; experiment 1)	ThT assay at 330 mM % inhib. ([1]; experiment 2)	IC50 [4]	biological activity (ThT assay) in words, compared to compound 1 / compounds according to the invention [1]	solubility at 24 h [2, 6]	solubility in words, compared to compound 1 [2]	Structure (SMILES)	further results
68.4%	59.0%		significantly reduced activity			CNc1cccc(NCCc2ccccn2)n1 [Compound 6]	inhibition at 330 µM [1]: 63.7%
77.6%	70.3%		significantly reduced activity	50 µg/mL		CNc1cccc(CCNc2cccc(NC)n2)n1 [Compound 7]	inhibition at 330 µM [1]: 74%; solubility at 24 h ([2]; table with % inhib.): 195 µM
73.3%	80.7%			1 µM and 0.4 µg/mL	significantly worse	CCCNc1ccc(NCc2ccc(NCc3ccc(NCCC)nc3)nc2)nc1 [Compound 8, reference compound]	
91.8%	93.4%		comparable activity to compound 1	154 µM and 57 µg/mL	worse	c1ccc(CCNc2cccc(NCCc3ccc4c(n3)NCCC4)n2)nc1 [Compound 9]	
89.6%	77.6%		comparable activity to compound 1		worse	FC(F)(CNc1cccc(NCCc2ccccn2)n1)c1ccc2c(n1)NCCC2 [Compound 10]	
95.3%	94.4%		comparable activity to compound 1	119 µM and 48 µg/mL	worse	FC(F)(CNc1cccc(NCCc2ccc3c(n2)NCCC3)n1)c1ccccn1 [Compound 11]	
56.4%	63.7%		worse	21.5 µM and 9.5 µg/mL	worse	FC(F)(CNc1cccc(NCC(F)(F)c2ccc3c(n2)NCCC3)n1)c1ccccn1 [Compound 12]	
		298 µM				CNc1cccc(CCNc2cccc(CCN(c3ccccn3)c3ccccn3)n2)n1 [Compound 13]	
